Experimental data taken from patent publication US5688949A, “Pyrazolo[1,5-A]pyrimidine derivatives and anti-inflammatory agent containing the same” (Otsuka Pharmaceutical Factory, Inc., priority 1991, dated 1997).

Legend:
cyclooxygenase [1] = target: T1, cyclooxygenase (Ovis aries, UniProt P05979); test: Cyclooxygenase inhibitory activity test 2 (fixed concentration, sheep seminal vesicle microsome); type: biochemical; conditions: same fixed concentration, 3×10^-7 M; PGE2 producing rate compared with control group
T1 construct: sheep seminal vesicle microsome, which is a crude enzyme solution; from tissue; host or cells: sheep seminal vesicle microsomes (crude enzyme solution)
T1 sequence (P05979 25-600): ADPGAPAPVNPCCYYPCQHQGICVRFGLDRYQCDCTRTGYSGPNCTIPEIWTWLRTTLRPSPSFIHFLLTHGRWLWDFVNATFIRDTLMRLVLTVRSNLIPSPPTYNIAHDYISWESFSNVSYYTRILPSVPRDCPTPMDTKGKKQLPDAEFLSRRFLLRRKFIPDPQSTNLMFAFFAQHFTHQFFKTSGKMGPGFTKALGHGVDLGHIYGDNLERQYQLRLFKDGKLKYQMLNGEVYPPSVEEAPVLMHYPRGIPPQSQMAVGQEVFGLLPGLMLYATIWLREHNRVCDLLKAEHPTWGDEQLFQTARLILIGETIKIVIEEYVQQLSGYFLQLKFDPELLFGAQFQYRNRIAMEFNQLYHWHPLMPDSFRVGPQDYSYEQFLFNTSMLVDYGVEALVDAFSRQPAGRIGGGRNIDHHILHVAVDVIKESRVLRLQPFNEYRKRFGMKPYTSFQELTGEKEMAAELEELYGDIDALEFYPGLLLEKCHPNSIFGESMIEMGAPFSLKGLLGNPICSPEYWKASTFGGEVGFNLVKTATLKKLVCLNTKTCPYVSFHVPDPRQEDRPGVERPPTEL
Experimental: The preparation of sheep seminal vesicle microsome, which is a crude enzyme solution, and the analysis of the cyclooxygenase activity were carried out according to the method of Miyamoto et al. as follows [cf.
(§1) That is, a test compound was added to a microsome solution, and the mixture was incubated at 24° C. for two minutes, and then, thereto was added a substrate, ^14 C-arachidonic acid. The mixture was further incubated for two minutes, and the reaction was quenched with a mixture of ether/methanol/0.2M citric acid (30:4:1), and extracted to collect a product produced by cyclooxygenase. The extract was spotted on a thin layer plate and the plate was developed. The fractions containing the arachidonic acid, prostaglandin E2 (PGE2) and the other parts were collected by scratching, respectively. Each part was measured with a scintillation counter, by which the cyclooxygenase activity therein was estimated.

cyclooxygenase [2] = target: T1, cyclooxygenase; test: Cyclooxygenase inhibitory activity test 1 (sheep seminal vesicle microsome, 14C-arachidonic acid); type: biochemical
Experimental: Cyclooxygenase inhibitory activity test 1:
The preparation of sheep seminal vesicle microsome, which is a crude enzyme solution, and the analysis of the cyclooxygenase activity were carried out according to the method of Miyamoto et al. as follows [cf. Proc. Natl. Acad. Sci., U.S.A., 71, 3645 (1974) and J. Biol. Chem., 251, 2629 (1976)].
as §1
The compounds prepared in Examples 2, 38, 44 and 46 were tested in the above experiment, and there were obtained the concentrations of the test compounds required to reduce the cyclooxygenase activity to 50% (cyclooxygenase inhibitory rate; IC50 value).

Compound	inhibition at 0.3 µM (cyclooxygenase [1]) [%]	IC50 value relative to that of indomethacin ("times as high as that of indomethacin") (cyclooxygenase [2]; reference compound indomethacin) [times]	IC50 (cyclooxygenase [2]; sheep seminal vesicle microsome, 24° C., two minutes preincubation, two minutes with 14C-arachidonic acid, read-out: IC50 value (concentration required to reduce the cyclooxygenase activity to 50%)) [nM]
Cc1cc(Nc2cc(C(C)(C)C)c(O)c(C(C)(C)C)c2)n2nccc2n1 [Example 2, 5-methyl-7-(3,5-di-t-butyl-4-hydroxyphenyl)aminopyrazolo[1,5-a]pyrimidine]	65	27.8	300
CCCCc1cc(Nc2cc(C(C)(C)C)c(O)c(C(C)(C)C)c2)n2nccc2n1 [Example 38]	48.2		
CCc1cc(Nc2cc(C(C)(C)C)c(O)c(C(C)(C)C)c2)n2nccc2n1 [Example 44]	55.9		
CC(C)(C)c1cc(Nc2cc(C3CC3)nc3ccnn23)cc(C(C)(C)C)c1O [Example 46]	50.5		
